Experimental data published in the supplement of paper PMC7017272.
± gives the standard deviation of the averaged measurements.

Tests used:
Conditions in all cases: treatment time: 3 days
UT-SCC-73 [1] = assay: drug sensitivity score (DSS); higher = more sensitive; extreme values may be limits of the assay
Method in brief: (§1)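 HPV-negative HNSCC cell lines were seeded at 500 cells/well in 384-well plates on plastic, on Matrigel- or Myogel-coated wells (500 µg/mL), or embedded in Matrigel or Myogel plus rat collagen I. Compounds were given at five 10-fold concentrations for 3 days, and viability was read by CellTiter-Glo 2.0 luminescence. Signals were normalised to vehicle (0.1% DMSO) and cell-killing control wells. Percent-inhibition dose–response curves were fitted in the FIMM pipeline to derive IC50, maximal inhibition and drug sensitivity score.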

UT-SCC-40 [2] = assay: as above
Method in brief: as §1

UT-SCC-8 [3] = assay: as above
Method in brief: as §1

UT-SCC-28 = assay: as above
Method in brief: as §1

UT-SCC-81 [4] = assay: as above
Method in brief: as §1

UT-SCC-44 [5] = assay: as above
Method in brief: as §1

UT-SCC-24B [6] = assay: as above
Method in brief: as §1

UT-SCC-73 [7] = assay: relative IC50 (midpoint of the fitted curve; maximal inhibition may be below 50%); higher = less potent
Method in brief: as §1

UT-SCC-42B = assay: as above
Method in brief: as §1

UT-SCC-42A = assay: as above
Method in brief: as §1

UT-SCC-40 [8] = assay: as above
Method in brief: as §1

UT-SCC-8 [9] = assay: as above
Method in brief: as §1

UT-SCC-106A = assay: as above
Method in brief: as §1

UT-SCC-81 [10] = assay: as above
Method in brief: as §1

UT-SCC-44 [11] = assay: as above
Method in brief: as §1

UT-SCC-14 = assay: as above
Method in brief: as §1

UT-SCC-24B [12] = assay: as above
Method in brief: as §1

UT-SCC-24A = assay: maximal % inhibition of viability relative to DMSO; higher = stronger effect
Experimental: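 HNSCC cell lines (500 cells/well, 384-well) were cultured on plastic, on top of (2D) or embedded (3D) in Matrigel or human leiomyoma matrix Myogel (500 ug/mL; Myogel 3D mixed with rat collagen I). Cells were treated for 3 days with 5 ten-fold concentrations of each drug, and viability was read by CellTiter-Glo. Viability was normalised to DMSO (0% inhibition) and 100 uM benzethonium chloride (100% inhibition) controls and fitted with the FIMM DSRT pipeline to give IC50 (nM), maximal % inhibition and the drug sensitivity score (DSS). Suffixes _1/_2/_3 on drug names are replicates.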

[13] = culture condition: embedded in Matrigel
[14] = culture condition: embedded in Myogel + collagen I
[15] = culture condition: on top of Matrigel
[16] = culture condition: on top of Myogel
[17] = culture condition: plastic 2D (no matrix)

relative IC50 (UT-SCC-73 [7]; [13]): 38.5 nM
relative IC50 (UT-SCC-73 [7]; [15]): 31.8 nM
relative IC50 (UT-SCC-73 [7]; [16]): 132 nM
relative IC50 (UT-SCC-73 [7]; [17]): 64.4 nM
relative IC50 (UT-SCC-42B; [13]): 16.6 nM
relative IC50 (UT-SCC-42B; [15]): 79.5 nM
relative IC50 (UT-SCC-42B; [16]): 757 nM
relative IC50 (UT-SCC-42B; [17]): 218 nM
relative IC50 (UT-SCC-42A; [13]): 36.3 nM
relative IC50 (UT-SCC-42A; [14]): 94.1 nM
relative IC50 (UT-SCC-42A; [15]): 20.8 nM
relative IC50 (UT-SCC-42A; [17]): 41.5 nM
relative IC50 (UT-SCC-40 [8]; [13]): 15.3 nM
relative IC50 (UT-SCC-40 [8]; [14]): 118 nM
relative IC50 (UT-SCC-40 [8]; [15]): 33.5 nM
relative IC50 (UT-SCC-40 [8]; [16]): 83.3 nM
relative IC50 (UT-SCC-40 [8]; [17]): 111 nM
relative IC50 (UT-SCC-8 [9]; [13]): 259 nM
relative IC50 (UT-SCC-8 [9]; [14]): 1760 nM
relative IC50 (UT-SCC-8 [9]; [15]): 410 nM
relative IC50 (UT-SCC-8 [9]; [17]): 602 nM
relative IC50 (UT-SCC-106A; [13]): 15.2 nM
relative IC50 (UT-SCC-106A; [15]): 15.5 nM
relative IC50 (UT-SCC-106A; [16]): 498 nM
relative IC50 (UT-SCC-106A; [17]): 25.7 nM
relative IC50 (UT-SCC-81 [10]; [13]): 14.2 nM
relative IC50 (UT-SCC-81 [10]; [14]): 924 nM
relative IC50 (UT-SCC-81 [10]; [15]): 61.6 nM
relative IC50 (UT-SCC-81 [10]; [17]): 850 nM
relative IC50 (UT-SCC-44 [11]; [13]): 56.2 nM
relative IC50 (UT-SCC-44 [11]; [14]): 417 nM
relative IC50 (UT-SCC-44 [11]; [15]): 58.4 nM
relative IC50 (UT-SCC-44 [11]; [16]): 569 nM
relative IC50 (UT-SCC-44 [11]; [17]): 61.7 nM
relative IC50 (UT-SCC-14; [14]): 238 nM
relative IC50 (UT-SCC-14; [15]): 146 nM
relative IC50 (UT-SCC-14; [16]): 299 nM
relative IC50 (UT-SCC-24B [12]; [13]): 309 nM
relative IC50 (UT-SCC-24B [12]; [14]): 808 nM
relative IC50 (UT-SCC-24B [12]; [15]): 317 nM
relative IC50 (UT-SCC-24B [12]; [16]): 1430 nM
relative IC50 (UT-SCC-24B [12]; [17]): 184 nM
SMILES: COc1cc(F)c(F)c(Nc2ccc(I)cc2F)c1NS(=O)(=O)C1(C[C@H](O)CO)CC1 [Refametinib]
drug sensitivity score (UT-SCC-73 [1]; [13]): 25 ± 1.3 DSS
drug sensitivity score (UT-SCC-73 [1]; [14]): 16 ± 3.4 DSS
drug sensitivity score (UT-SCC-73 [1]; [15]): 24 ± 0.8 DSS
drug sensitivity score (UT-SCC-73 [1]; [16]): 15.1 ± 1.1 DSS
drug sensitivity score (UT-SCC-73 [1]; [17]): 20 ± 1.4 DSS
drug sensitivity score (UT-SCC-40 [2]; [13]): 26.9 ± 1.2 DSS
drug sensitivity score (UT-SCC-40 [2]; [14]): 16.8 ± 2 DSS
drug sensitivity score (UT-SCC-40 [2]; [15]): 22.5 ± 1.8 DSS
drug sensitivity score (UT-SCC-40 [2]; [16]): 14.3 ± 1.1 DSS
drug sensitivity score (UT-SCC-40 [2]; [17]): 14.1 ± 1.1 DSS
drug sensitivity score (UT-SCC-8 [3]; [13]): 15.7 ± 1.7 DSS
drug sensitivity score (UT-SCC-8 [3]; [14]): 6.63 ± 3.1 DSS
drug sensitivity score (UT-SCC-8 [3]; [15]): 12.5 ± 1.5 DSS
drug sensitivity score (UT-SCC-8 [3]; [16]): 10.3 ± 2 DSS
drug sensitivity score (UT-SCC-8 [3]; [17]): 10.9 ± 2.8 DSS
drug sensitivity score (UT-SCC-28; [13]): 9.8 ± 1.8 DSS
drug sensitivity score (UT-SCC-28; [14]): 4.67 ± 4.2 DSS
drug sensitivity score (UT-SCC-28; [15]): 13.2 ± 2.8 DSS
drug sensitivity score (UT-SCC-28; [17]): 4.4 ± 2.4 DSS
drug sensitivity score (UT-SCC-81 [4]; [13]): 29.8 ± 2 DSS
drug sensitivity score (UT-SCC-81 [4]; [14]): 5.87 ± 0.35 DSS
drug sensitivity score (UT-SCC-81 [4]; [15]): 21.1 ± 1.4 DSS
drug sensitivity score (UT-SCC-81 [4]; [16]): 5.53 ± 1.2 DSS
drug sensitivity score (UT-SCC-81 [4]; [17]): 8.8 ± 0.96 DSS
drug sensitivity score (UT-SCC-44 [5]; [13]): 23.7 ± 1.5 DSS
drug sensitivity score (UT-SCC-44 [5]; [14]): 8.1 ± 2.3 DSS
drug sensitivity score (UT-SCC-44 [5]; [15]): 18.2 ± 2.5 DSS
drug sensitivity score (UT-SCC-44 [5]; [16]): 7.4 ± 1.2 DSS
drug sensitivity score (UT-SCC-44 [5]; [17]): 15.3 ± 0.64 DSS
drug sensitivity score (UT-SCC-24B [6]; [13]): 12.4 ± 0.7 DSS
drug sensitivity score (UT-SCC-24B [6]; [14]): 10.4 ± 1.8 DSS
drug sensitivity score (UT-SCC-24B [6]; [15]): 11.8 ± 0.98 DSS
drug sensitivity score (UT-SCC-24B [6]; [16]): 6.87 ± 1 DSS
drug sensitivity score (UT-SCC-24B [6]; [17]): 16.4 ± 2.1 DSS
maximal % inhibition of viability (UT-SCC-24A; [13]): 84.4 ± 1.8%
maximal % inhibition of viability (UT-SCC-24A; [14]): 73.9 ± 0.81%
maximal % inhibition of viability (UT-SCC-24A; [15]): 80.4 ± 2.4%
maximal % inhibition of viability (UT-SCC-24A; [16]): 59.7 ± 7.4%
maximal % inhibition of viability (UT-SCC-24A; [17]): 75.4 ± 3.4%
